Data reported in US9611223B2, “3-aryl-5-substituted-isoquinolin-1-one compounds and their therapeutic use” (INSTITUTE OF CANCER RESEARCH: ROYAL CANCER HOSPITAL (THE), priority 2013, dated 2017).

What was measured:
[1] = target: T1, TNKS1 (Homo sapiens, UniProt O95271, M1266I); experiment: TNKS1/PARP Biochemical Assay
T1 construct: expresses the active PARP domain of TNKS1 as a polyhistidine tagged protein; made in house; host or cells: E. coli Rosetta2(DE3)
Description: TNKS1/PARP Biochemical Assay
Tankyrase activity was assayed using a 96-well format HT Universal Chemiluminescent PARP Assay Kit (Trevigen, Inc, cat. no. 4676-096-K) according to the manufacturer's instructions. In short, tankyrase/PARP activity is quantified by the incorporation of biotinylated nicotinamide adenine dinucleotide (biotin-NAD^+) onto the immobilised pseudo substrate, Histone. The extent of poly(Biotin-ADP)ribosylation (PARylation) in the presence of increasing dose of inhibitor is then quantified by binding of streptavidin conjugated horse radish peroxidase (strep-HRP) followed by chemiluminescent detection.
Prior to assay initiation, inhibitor stocks were prepared in aqueous DMSO (10% (v/v)) from 5 millimolar (mM) stock in 100% DMSO (Sigma Aldrich, cat. no. 265855) as 10× concentrations. For the primary assay (i.e., single dose at 1 micromolar (μM) final concentration) this corresponded to 10 μM in 10% DMSO. For IC50 determination, this corresponded to 100 μM, 30 μM, 10 μM, 3.0 μM, 1.0 μM, 0.30 μM, 0.10 μM and 0 μM in 10% DMSO for final concentrations of 10 μM, 3.0 μM, 1.0 μM, 0.30 μM, 0.10 μM, 0.030 μM, 0.010 μM, and 0 μM with 1% (v/v) final DMSO. The assay was initiated by the addition of 10× inhibitor (5 microliters (μL)) or 10% aqueous DMSO (5 μL) to triplicate wells. Twenty microliters of diluted TNKS1 protein (200 nanomolar (nM) final conc.) in PARP buffer (Trevigen, Inc, cat. no. 4671-096-02) was added to each histone coated well, which was previously hydrated with PARP buffer. Triplicate wells with 1% DMSO/buffer alone (no enzyme) were also added as a measure of assay ‘noise’. Positive control for PARP inhibition included the addition of 4-amino-1,8-naphthalimide (Sigma Aldrich, cat. no A0966) in corresponding doses.
The mixture was incubated for 10 minutes at room temperature and the PARylation reaction initiated by the addition of PARP cocktail (25 μL, Trevigen, Inc) containing biotin-NAD^+ (Trevigen, Inc, cat. no. 4670-500-01), activated DNA (Trevigen, Inc, cat. no. 4671-096-06) and PARP buffer. The reaction was incubated for 1.5 hours (for TNKS1) or 1 hour (for PARP1) at room temperature. The reaction mixture was then removed by aspiration and the wells washed (3×200 μL) with phosphate buffered saline containing Triton X-100 (0.1% (v/v), Sigma Aldrich cat. no. T8787). The wells were then washed (3×200 μL) with phosphate buffered saline and then incubated with strep-HRP (50 μL, Trevigen, Inc, cat. no. 4800-30-06) in strep-diluent (1:500 dilution, Trevigen Inc, cat. no. 4671-096-04) for 1 hour at room temperature. The Strep-HRP mixture was then aspirated and the wells washed (3×200 μL) with phosphate buffered saline containing Triton X-100 (0.1% (v/v)) followed by phosphate buffered saline (3×200 μL) and then incubated with PeroxyGlow™ reagent (100 μL, Trevigen, Inc, cat. nos. 4675-096-01, 4675-096-02, room temperature, mixed 1:1).
The amount of light emitted as a result of the peroxidase-chemiluminescent reagent reaction was in proportion to the extent of poly(Biotin-ADP)ribosylation and was immediately measured with a Victor^2 plate reader (Perkin Elmer, luminescence detection assay, luminescent units described as ‘Counts Per Second’ (CPS)). The data were normalised to the DMSO control after subtraction of ‘noise’ and was expressed as % PARP activity as a function of inhibitor dose. Inhibition was expressed as 100%−(% PARP activity). Dose response curves used to determine IC50 values were Log transformed and analysed by non-linear regression analysis (variable slope) using Prism (GraphPad Software, Inc) and were presented as IC50 with 95% confidence interval to determine relative potency.
Tankyrase1 (pNIC-Bsa4-TNKS1^PARP) expression construct was obtained from the Structural Genomics Consortium (SGC) and expresses the active PARP domain of TNKS1 as a polyhistidine tagged protein. […]

[2] = tested on: Wnt signalling; experiment: Wnt-Luciferase Reporter Assay; format: cell-based; details: DLD1-Wnt-Luc cells, 20-22 hours
Description: Wnt-Luciferase Reporter Assay
A Wnt dependent cell line (i.e., DLD1 colorectal adenocarcinoma cell line) was transduced with replication incompetent VSV-g pseudotyped lentiviral particles expressing the firefly luciferase gene under the control of minimal cytomegalovirus (mCMV) promoter and tandem repeats of the TCF/LEF transcriptional response element.
DLD1-Wnt-Luc cells were seeded (5000 cells/well) in a 96-well plate (Greiner Bio-One, cat. no. 655098) in Dubelco's Modified Eagle Medium (DMEM, SFBCO/Invitrogen, cat no. 41965-039) supplemented with Fetal Bovine Serum (FBS, 10%, SFBCO/Invitrogen, cat no. 10108-165). After overnight incubation, the media was replaced with OptiMEM (SFBCO/Invitrogen, cat no. 11058-021) supplemented with FBS (0.5%) and non-essential amino acids (1%, SFBCO/Invitrogen, cat no. 11140-035) and the appropriate putative TNKS inhibitor at a final concentration of 10 μM, 3 μM, 1 μM, 0.30 μM, 0.10 μM, 0.030 μM, 0.010 μM and 0 μM with 1% (v/v) final DMSO in double-triplicate wells. Positive control includes the use of XAV-939 (Maybridge, FisherScientific, 3,5,7,8-tetrahydro-2-[4-(trifluoromethyl)phenyl]-4H-thiopyrano[4,3-d]pyrimidin-4-one, cat. no. RF03920, see: Huang et al., Nature, 2009, Vol. 461, pp. 614-620). Cells were incubated for 20-22 hours before assaying for luciferase (first set of triplicates: Wnt activation) and viability (second set of triplicates: cell survival for data normalisation vs Wnt-activation) using ONE-Glo (Promega, cat. no. E6110) and CellTiter-Glo (Promega, cat. no. G7570) reagents consecutively. The assay was measured using a Victor^2 plate reader. The data were normalised to the DMSO control and were expressed as % Wnt activity as a function of inhibitor dose. Dose response curves used to determine IC50 values were Log transformed and analysed by non-linear regression analysis (variable slope) using Prism (GraphPad Software, Inc).

T1 sequence (O95271 1112-1317 M1266I): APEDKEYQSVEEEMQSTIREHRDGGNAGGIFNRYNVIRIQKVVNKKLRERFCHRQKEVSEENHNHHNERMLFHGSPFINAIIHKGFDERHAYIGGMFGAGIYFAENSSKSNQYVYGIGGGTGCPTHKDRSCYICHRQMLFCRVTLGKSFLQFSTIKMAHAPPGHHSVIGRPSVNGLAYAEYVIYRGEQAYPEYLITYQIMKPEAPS

IC50 [1] [nM]	IC50 [2] [nM]	SMILES
< 100	< 300	CN1CCN(Cc2ccc(-c3cc4c(C#N)cc(F)cc4c(=O)[nH]3)cc2)CC1 [IQ-014]
< 100	< 300	CN(C)C1CCN(Cc2ccc(-c3cc4c(C#N)cccc4c(=O)[nH]3)cc2)C1 (centres unmarked) [IQ-011]
< 50	< 300	CN(C)C1CCN(Cc2ccc(-c3cc4c(C#N)cccc4c(=O)[nH]3)cc2)CC1 [IQ-012]
< 50	< 300	CN1CCN(Cc2ccc(-c3cc4c(C#N)cccc4c(=O)[nH]3)cc2)CC1 [IQ-002, 3-[4-(4-Methyl-piperazin-1-ylmethyl)-phenyl]-1-oxo-1,2-dihydro-isoquinoline-5-carbonitrile]
